Activity calls are given as the source filed them. The calls are words filed in the database; no cut-off is given here.
Columns and labels:
RAW264.7 [1] = test: Inhibition of LPS-induced nitric oxide production in mouse RAW264.7 cells assessed as nitrite level after 24 hrs by Griess method; assay type: functional, cell-based; settings: for IC50: RAW264.7, 24 h
Neutrophil = test: Inhibition of superoxide anion generation in fMLP-stimulated human neutrophils; assay type: functional, cell-based
RAW264.7 [2] = test: Cytotoxicity against mouse RAW264.7 cells after 24 hrs by MTT assay; assay type: cell-based; settings: RAW264.7, 24 h
RAW264.7 [3] = test: Inhibition of LPS-induced nitric oxide production in mouse RAW264.7 cells assessed as nitrite level upto 50 uM after 24 hrs by Griess method; assay type: functional, cell-based

Question: COC(=O)C[C@H]1C(C)(C)[C@H](OC(C)=O)[C@]2(O)CC3=C4CC(=O)O[C@@H](c5ccoc5)[C@]4(C)CC[C@@H]3[C@@]1(C)C2=O [2-HYDROXYFISSINOLIDE] was tested. Which inhibition (RAW264.7 [1]) did it give?
Answer: Dose-dependent effect

Question: What about the IC50 (RAW264.7 [1]) of the same compound?
Answer: 52.1 µM

Question: What about the IC50 (Neutrophil) of the same compound?
Answer: > 27 µM

Question: What does the source list for CC1(C)C(=O)C=C[C@]2(C)[C@H]3CC[C@@]4(C)[C@H](c5ccoc5)OC(=O)[C@H]5O[C@]54[C@]3(C)C(=O)C[C@@H]12 [DEACETOXY-7-OXOGEDUNIN]?
Answer: inhibition (RAW264.7 [1]): Dose-dependent effect; IC50 (RAW264.7 [1]): 22.8 µM; IC50 (RAW264.7 [2]): 16.7 µM

Question: What does the source list for CC1(C)C(=O)C=C[C@]2(C)[C@H]3CC[C@@]4(C)[C@H](c5ccoc5)OC(=O)[C@H]5O[C@]54[C@]3(C)[C@H](O)C[C@@H]12 [DEACETYLGEDUNIN]?
Answer: inhibition (RAW264.7 [1]): Dose-dependent effect; IC50 (RAW264.7 [1]): < 10 µM; IC50 (RAW264.7 [2]): 37.6 µM

Question: Which results are given for COC(=O)C[C@H]1C(C)(C)C(=O)[C@@H]2CC3=C4CC(=O)O[C@@H](c5ccoc5)[C@]4(C)CC[C@@H]3[C@@]1(C)C2=O [MEXICANOLIDE]?
Answer: inhibition (RAW264.7 [3]): inactive; IC50 (Neutrophil): > 27 µM

Question: How did the inhibition (RAW264.7 [3]) turn out when COC(=O)C[C@H]1[C@]2(C)C[C@]3(O)[C@@](O)(C(=O)C4=C(CC[C@]5(C)C4=CC(=O)O[C@H]5c4ccoc4)[C@]13C)[C@H]2OC(C)=O [MOLUCCENSIN H] was run?
Answer: inactive

Question: And the IC50 (Neutrophil)?
Answer: > 27 µM

Question: For COC(=O)C[C@H]1[C@]2(C)C[C@@]3(O)[C@]1(C)[C@H]1CC[C@]4(C)C(=C1C(=O)[C@@]3(OC)[C@H]2OC(C)=O)CC(=O)O[C@H]4c1ccoc1 [MOLUCCENSIN I], which inhibition (RAW264.7 [3]) is on record?
Answer: inactive

Question: And the IC50 (Neutrophil)?
Answer: > 27 µM

Question: With COC(=O)C[C@H]1C(C)(C)[C@H](O)[C@@H]2CC3=C4CC(=O)O[C@@H](c5ccoc5)[C@]4(C)CC[C@@H]3[C@@]1(C)C2=O [PROCERANOLIDE] as the compound, how does the inhibition (RAW264.7 [1]) read?
Answer: Dose-dependent effect

Question: What about the IC50 (RAW264.7 [1]) of the same compound?
Answer: 50.7 µM

Question: What about the IC50 (Neutrophil) of the same compound?
Answer: > 27 µM

Question: How did the inhibition (RAW264.7 [1]) turn out when COC(=O)C[C@@H]1C(C)(C)C(=O)C=C[C@@]1(C)[C@H]1CC[C@@]2(C)[C@H](c3ccoc3)OC(=O)C[C@]2(O)[C@]1(C)O [THAIMOLUCCENSIN A] was run?
Answer: Dose-dependent effect

Question: And the IC50 (RAW264.7 [1])?
Answer: 45.8 µM

Question: For COC(=O)C[C@H]1[C@]2(C)CO[C@@]3(O)[C@]1(C)[C@H]1CC[C@]4(C)[C@@H](CC(=O)O[C@H]4c4ccoc4)C1=C[C@@]3(O)[C@H]2OC(C)=O [THAIMOLUCCENSIN B], which IC50 (Neutrophil) is on record?
Answer: > 27 µM

Question: What does the source list for COC(=O)C[C@H]1[C@]2(C)C[C@@]3(OC(=O)C(C)C)[C@]1(C)[C@H]1CC[C@]4(C)C(=C1C(=O)[C@@]3(O)[C@H]2OC(C)=O)CC(=O)O[C@H]4c1ccoc1 [THAIMOLUCCENSIN C]?
Answer: inhibition (RAW264.7 [1]): Dose-dependent effect; IC50 (RAW264.7 [1]): 32.3 µM; IC50 (Neutrophil): > 27 µM

From ChEMBL document CHEMBL1806445, “Limonoids from seeds of Thai Xylocarpus moluccensis” (Bioorg Med Chem Lett, 2011)
